Laboratory results from paper PMC7182277, “Characterizing Emerging Canine H3 Influenza Viruses” (PLoS Pathogens, 2020).
Structures can show the parent of a compound that is named as a salt.

Columns and labels:
CIV-41915 = experiment: microbe, parasite or virus in culture; assay type: cell-based, canine H3N2 influenza A virus (A/canine/Illinois/41915/2015); settings: Influenza A virus, MDCK, in Canis lupus familiaris, read-out: Phenotypic assay (Mean IC50 ± SD)
rCIV-1177 = experiment: microbe, parasite or virus in culture; assay type: cell-based; settings: Influenza A virus, MDCK, in Canis lupus familiaris, read-out: Phenotypic assay (Mean IC50 ± SD)
Beth15 = experiment: microbe, parasite or virus in culture; assay type: cell-based, human H3N2 influenza A virus (A/Bethesda/55/2015)
NA of CIV-41915 = NA of CIV-41915 (Influenza A virus, UniProt A0A0H3YBU9); assay type: biochemical, canine H3N2 influenza A virus (A/canine/Illinois/41915/2015); settings: read-out: NA enzyme inhibition assay (Mean IC50 ± SD)
NA of rCIV-1177 = NA of rCIV-1177 (Influenza A virus, UniProt A0A2D0WZJ5); assay type: biochemical; settings: read-out: NA enzyme inhibition assay (Mean IC50 ± SD)
NA of Beth15 = NA of Beth15 (Influenza A virus, UniProt A0A193ACB1); assay type: biochemical, human H3N2 influenza A virus (A/Bethesda/55/2015); settings: read-out: NA enzyme inhibition assay (Mean IC50 ± SD)

Row | SMILES | IC50 (CIV-41915) | IC50 (rCIV-1177) | Phenotypic assay (Mean IC50 ± SD) (Beth15) | IC50 (Beth15; Influenza A virus, MDCK, read-out: Phenotypic assay (Mean IC50 ± SD)) | IC50 (NA of CIV-41915) | IC50 (NA of rCIV-1177) | IC50 (NA of Beth15)
1 | NC12CC3CC(CC(C3)C1)C2 [Amantadine, amantadine hydrochloride] | 600 ± 100 nM | 300 ± 100 nM | resistant | > 100000 nM | – | – | –
2 | CCC(CC)O[C@@H]1C=C(C(=O)O)C[C@H](N)[C@H]1NC(C)=O [Oseltamivir carboxylate, oseltamivir carboxylate] | – | – | – | – | 0.13 ± 0.01 nM | 0.2 ± 0.01 nM | –
3 | CCC(CC)[C@H](NC(C)=O)[C@@H]1[C@H](O)[C@@H](C(=O)O)C[C@H]1N=C(N)N [Peramivir, peramivir] | – | – | – | – | 0.15 ± 0.02 nM | 0.19 ± 0.02 nM | 0.12 ± 0.02 nM
